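Following 48 hours of exposure in 96-well plates, responses at five concentrations were used to interpolate endpoints linearly. GI50: concentration for 50% inhibition of growth.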 Active and inactive are the calls of the source. Cut-off read from the data, not from the text of the source: active = GI50 up to about 1.1 µM and inactive = higher.
How the values were obtained:
Test in all cases: NCI tumour cell line growth inhibition, 48 h
HOP-18 = test system: HOP-18
LXFL 529 = test system: LXFL 529
DLD-1 = test system: DLD-1
DMS-273 = test system: DMS-273
XF498 = test system: XF498
BT-549 = test system: BT-549
MDA-N = test system: MDA-N
Hs-578T = test system: Hs-578T

Measured: GI50

Cc1cccc(-n2c(N)c(-c3nc4ccccc4[nH]3)sc2=S)c1
inactive: HOP-18 47.3 µM | LXFL 529 21 µM | DLD-1 25.1 µM | DMS-273 20.1 µM

NC(=S)N/N=C(/CCN1CCCC1)CC(C1=C(O)C2=CCCCC2OC1=O)c1ccccc1 (configuration not stated)
inactive: HOP-18 > 100 µM | LXFL 529 > 100 µM | DLD-1 > 100 µM | XF498 > 100 µM

O=C(Nc1ccc([N+](=O)[O-])cc1[N+](=O)[O-])C(=O)C(C(=O)c1ccc(Cl)c(Cl)c1)C1OC(=O)c2ccccc21 (configuration not stated)
inactive: LXFL 529 17.1 µM | DLD-1 19.1 µM | DMS-273 31 µM

COc1ccc([N+]2=NC(c3ccc([N+](=O)[O-])cc3)=NN(c3ccccc3)C2)cc1
inactive: LXFL 529 27.1 µM | DLD-1 26.5 µM | XF498 55.6 µM | DMS-273 > 10 µM

Cc1cn([C@H]2C[C@H](N=[N+]=[N-])[C@@H](CO)O2)c(=O)[nH]c1=O [ZIDOVUDINE]
inactive: HOP-18 > 100 µM | DLD-1 > 100 µM | BT-549 488 µM | MDA-N 655 µM | Hs-578T 885 µM | DMS-273 > 100 µM

CC12CC(=O)NN=C1c1ccccc1C2 (configuration not stated)
inactive: DLD-1 > 100 µM | XF498 > 100 µM | DMS-273 > 100 µM

N=C(N)NS(=O)(=O)c1ccc(NC(=O)c2cccc3cc4ccccc4nc23)cc1
inactive: LXFL 529 21.7 µM | DLD-1 > 100 µM | XF498 99.5 µM | DMS-273 > 100 µM

C=C[Si](C)(C)COC(=O)/C(C#N)=C/C=C/c1ccccc1
inactive: HOP-18 > 100 µM | LXFL 529 47.5 µM | DLD-1 > 100 µM | DMS-273 85.7 µM

O=C(Cn1c(=O)oc2ccc(C(=O)c3ccccc3Cl)cc21)c1ccc([N+](=O)[O-])cc1
inactive: BT-549 19.1 µM | MDA-N 18.1 µM | Hs-578T 37.2 µM

COc1cc2cccc(/N=C\c3cccc(OC)c3OC(C)C)c2cc1OC
inactive: LXFL 529 14.7 µM | DLD-1 25.6 µM | XF498 26.8 µM

O=C(O)CN1CCNCCN(CC(=O)O)CC1
inactive: BT-549 > 100 µM | MDA-N 11.4 µM | Hs-578T > 66.1 µM

C=CCOC1=C(OC(C)=O)C(=O)OC1C1COC(C)(C)O1 (configuration not stated)
inactive: BT-549 43.1 µM | MDA-N 30.1 µM | Hs-578T 32.4 µM

CNC(=O)OCc1cnc([N+](=O)[O-])n1C
inactive: BT-549 > 100 µM | MDA-N > 100 µM | Hs-578T > 100 µM

Nc1nc(N)c(Cn2ccnc2)c(O)n1
inactive: BT-549 > 100 µM | MDA-N > 100 µM | Hs-578T > 100 µM

Cc1cccc(/N=N/c2ccc(O)c(CN(C)C)c2)c1
inactive: BT-549 17.2 µM | MDA-N 27.3 µM | Hs-578T 16 µM

O=C1Nc2cc(Cl)ccc2C(=O)N2CCC[C@@H]12
inactive: BT-549 > 100 µM | MDA-N > 100 µM | Hs-578T 33.5 µM

Cc1c(-c2cnccn2)ssc1=S [OLTIPRAZ]
inactive: BT-549 22 µM | MDA-N > 100 µM | Hs-578T 34.5 µM

O=[N+]([O-])c1ccc(Cl)c(CNc2ncnc3c2ncn3C2CCCCO2)c1 (configuration not stated)
inactive: BT-549 41.2 µM | MDA-N 12.7 µM | Hs-578T > 100 µM
